Test results: ChEMBL document CHEMBL2203255, “Nerve growth factor-potentiating benzofuran derivatives from the medicinal fungus Phellinus ribis” (J Nat Prod, 2012)
The source made the active and inactive calls. No cut-off for these calls is given here.

Tested on: PC-12
Experiment: Neuritogenic activity in rat PC12 cells assessed as potentiation of NGF-induced neurite outgrowth at 1 to 30 uM after 4 days by phase-contrast microscopy in presence of 1 ng/ml NGF
Assay type: functional, cell-based

Question: Which Activity does the source give for `CO[C@H]1[C@H](O)c2oc3ccccc3c2C(=O)[C@@H]1OC` here?
Answer: Active

Question: Which Activity does the source give for `CO[C@@H]1C(=O)c2c(oc3ccccc23)[C@H](O)[C@H]1O` here?
Answer: Active

Question: Which Activity does the source give for `CO[C@@H]1[C@H](OC)C(=O)c2c(oc3ccccc23)[C@@H]1O` here?
Answer: Active

Question: For `CO[C@H]1[C@H](OC)C(=O)c2c(oc3c(O)cccc23)[C@@H]1O`, which Activity is on record?
Answer: Active
